Patent publication US6358885B1, “Substituted phenylheterocyclic herbicides” (Mississippi State University, priority 1992, dated 2002)

Tests used:
lambsquarters = test: Test B preemergence/postemergence greenhouse plant response rating 0 to 10; assay type: in vivo, Chenopodium album; settings: 0 to 10 scale
Outline: (§1)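 Postemergence treatment of plants two to eighteen cm tall ran alongside preemergence treatment of planted seed, each using compound in a non-phytotoxic solvent.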

wild oat = test: Test C preemergence/postemergence greenhouse plant response rating 0 to 100; assay type: in vivo, Avena fatua; settings: POSTEMERGENCE; for Plant response rating, Wild oat: 0 to 100 scale
From the text: (§2) The compounds evaluated in this test were formulated in a non-phytoxic solvent and applied to the soil surface before plant seedlings emerged (preemergence application), to water that covered the soil surface (flood application), and to plants that were in the one-to-four leaf stage (postemergence application). A sandy loam soil was used for the preemergence and postemergence tests, while a silt loam soil was used in the flood test. Water depth was approximately 2.5 cm for the flood test and was maintained at this level for the duration of the test. Plant species in the preemergence and postemergence tests consisted of barley (Hordeum vulgare), bedstraw (Galium aparine), blackgrass (Alopecurus myosuroides), chickweed (Stellaria media), corn (Zea mays), cotton (Gossypium hirsutum), crabgrass (Digitaria sanguinalis), downy brome (Bromus tectorum), giant foxtail (Setaria faberii), lambsquarters (Chenopodium album), morningglory (Ipomoea hederacea), pigweed ([…]), rape (Brassica napus), ryegrass (Lolium multiflorum), sorghum (Sorghum bicolor), soybean (Glycine max), speedwell (Veronica persica), sugar beet (Beta vulgaris), velvetleaf (Abutilon theophrasti), wheat (Triticum aestivum), wild buckwheat (Polygonum convolvulus), and wild oat (Avena fatua). All plant species were planted one day before application of the compound for the preemergence portion-of this test. Plantings of these species were adjusted to produce plants of appropriate size for the post-emergence portion of the test. […] All plant species were grown using normal greenhouse practices. Visual evaluations of injury expressed on treated plants, when compared to untreated controls, were recorded approximately fourteen to twenty one days after application of the test compound. […] A dash (-) response means no test result.

velvetleaf [1] = test: as above; assay type: in vivo, Abutilon theophrasti; settings: POSTEMERGENCE; for Plant response rating, Velvetleaf: 0 to 100 scale
From the text: as §2

crabgrass = test: as above; assay type: in vivo, Digitaria sanguinalis; settings: POSTEMERGENCE; for Plant response rating, Crabgrass: 0 to 100 scale
From the text: as §2

rice = test: Test C flood test plant response rating 0 to 100; assay type: in vivo, Oryza sativa; settings: for Plant response rating Rice Japonica: flood test species listed under POSTEMERGENCE, 0 to 100 scale
From the text: as §2

velvetleaf [2] = test: Test B preemergence/postemergence greenhouse plant response rating 0 to 10; assay type: in vivo, Abutilon theophrasti; settings: 0 to 10 scale
Outline: as §1

sorghum = test: Test C preemergence/postemergence greenhouse plant response rating 0 to 100; assay type: in vivo, Sorghum bicolor; settings: POSTEMERGENCE; for Plant response rating, Sorghum: 0 to 100 scale
From the text: as §2

sugar beet = test: Test B preemergence/postemergence greenhouse plant response rating 0 to 10; assay type: in vivo, Beta vulgaris; settings: 0 to 10 scale
Outline: as §1

pigweed = test: Test C preemergence/postemergence greenhouse plant response rating 0 to 100; assay type: in vivo, Amaranthusretroflexus; settings: POSTEMERGENCE; for Plant response rating Pigweed: 0 to 100 scale
From the text: as §2

cotton = test: as above; assay type: in vivo, Gossypium hirsutum; settings: POSTEMERGENCE; for Plant response rating, Cotton: 0 to 100 scale
From the text: as §2

barnyardgrass = test: Test B preemergence/postemergence greenhouse plant response rating 0 to 10; assay type: in vivo, Echinochloa crus-galli; settings: 0 to 10 scale
Outline: as §1

giant foxtail = test: as above; assay type: in vivo, Setaria faberii; settings: 0 to 10 scale
Outline: as §1

[3] = POSTEMERGENCE section, flood test, Rate 4 g/ha
[4] = Rate 16 g/ha, under POSTEMERGENCE head (flood test species)

COCN1C(=O)COc2cc(F)c(-c3nn4c(c3Br)CCCC4)cc21 [Compound 67]
Plant response rating, Lambsquarter (lambsquarters; POSTEMERGENCE, Rate 10 g/ha): 9 | Plant response rating, Lambsquarter (lambsquarters; POSTEMERGENCE, Rate 50 g/ha): 10 | Plant response rating, Lambsquarter (lambsquarters; PREEMERGENCE, Rate 50 g/ha): 10 | Plant response rating, Wild oat (wild oat; 62 g/ha): 60 | Plant response rating (0 to 100), Wild oat (wild oat; Rate 1 g/ha): 10 | Plant response rating (0 to 100), Wild oat (wild oat; Rate 4 g/ha): 30 | Plant response rating (0 to 100), Wild oat (wild oat; Rate 16 g/ha): 50 | Plant response rating, Velvetleaf (velvetleaf [1]; 62 g/ha): 100 | Plant response rating (0 to 100), Velvetleaf (velvetleaf [1]; Rate 1 g/ha): 70 | Plant response rating (0 to 100), Velvetleaf (velvetleaf [1]; Rate 4 g/ha): 85 | Plant response rating (0 to 100), Velvetleaf (velvetleaf [1]; Rate 16 g/ha): 100 | Plant response rating, Crabgrass (crabgrass; 62 g/ha): 40 | Plant response rating (0 to 100), Crabgrass (crabgrass; Rate 1 g/ha): 10 | Plant response rating (0 to 100), Crabgrass (crabgrass; Rate 4 g/ha): 20 | Plant response rating (0 to 100), Crabgrass (crabgrass; Rate 16 g/ha): 30 | Plant response rating (0 to 100), Rice Japonica (rice; POSTEMERGENCE section, flood test, Rate 1 g/ha): 0 | Plant response rating (0 to 100), Rice Japonica (rice; [3]): 0 | Plant response rating (0 to 100), Rice Japonica (rice; [4]): 50 | Plant response rating Rice Japonica (rice; 62 g/ha): 90 | Plant response rating, Velvetleaf (velvetleaf [2]; POSTEMERGENCE, Rate 10 g/ha): 9 | Plant response rating, Velvetleaf (velvetleaf [2]; POSTEMERGENCE, Rate 50 g/ha): 10 | Plant response rating, Velvetleaf (velvetleaf [2]; PREEMERGENCE, Rate 50 g/ha): 1 | Plant response rating, Sorghum (sorghum; 62 g/ha): 60 | Plant response rating (0 to 100), Sorghum (sorghum; Rate 1 g/ha): 20 | Plant response rating (0 to 100), Sorghum (sorghum; Rate 4 g/ha): 30 | Plant response rating (0 to 100), Sorghum (sorghum; Rate 16 g/ha): 40 | Plant response rating, Sugar beet (sugar beet; POSTEMERGENCE, Rate 10 g/ha): 10 | Plant response rating, Sugar beet (sugar beet; POSTEMERGENCE, Rate 50 g/ha): 10 | Plant response rating, Sugar beet (sugar beet; PREEMERGENCE, Rate 50 g/ha): 9 | Plant response rating Pigweed (pigweed; 62 g/ha): 100 | Plant response rating (0 to 100), Pigweed (pigweed; Rate 4 g/ha): 70 | Plant response rating (0 to 100), Pigweed (pigweed; Rate 16 g/ha): 100 | Plant response rating, Cotton (cotton; 62 g/ha): 100 | Plant response rating (0 to 100), Cotton (cotton; Rate 1 g/ha): 95 | Plant response rating (0 to 100), Cotton (cotton; Rate 4 g/ha): 100 | Plant response rating (0 to 100), Cotton (cotton; Rate 16 g/ha): 100 | Plant response rating, Barnyardgrass (barnyardgrass; POSTEMERGENCE, Rate 10 g/ha): 5 | Plant response rating, Barnyardgrass (barnyardgrass; POSTEMERGENCE, Rate 50 g/ha): 6 | Plant response rating, Barnyardgrass (barnyardgrass; PREEMERGENCE, Rate 10 g/ha): 2 | Plant response rating, Barnyardgrass (barnyardgrass; PREEMERGENCE, Rate 50 g/ha): 6 | Plant response rating, Giant foxtail (giant foxtail; POSTEMERGENCE, Rate 10 g/ha): 5 | Plant response rating, Giant foxtail (giant foxtail; POSTEMERGENCE, Rate 50 g/ha): 6 | Plant response rating, Giant foxtail (giant foxtail; PREEMERGENCE, Rate 10 g/ha): 0 | Plant response rating, Giant foxtail (giant foxtail; PREEMERGENCE, Rate 50 g/ha): 2

C#CC(C)N1C(=O)COc2cc(F)c(-c3nn4c(c3Cl)CCCC4)cc21 (centres unmarked) [Compound 50]
Plant response rating, Lambsquarter (lambsquarters; POSTEMERGENCE, Rate 10 g/ha): 9 | Plant response rating, Lambsquarter (lambsquarters; POSTEMERGENCE, Rate 50 g/ha): 10 | Plant response rating, Lambsquarter (lambsquarters; PREEMERGENCE, Rate 50 g/ha): 10 | Plant response rating, Wild oat (wild oat; 62 g/ha): 30 | Plant response rating, Wild oat (wild oat; 250 g/ha): 50 | Plant response rating (0 to 100), Wild oat (wild oat; Rate 1 g/ha): 10 | Plant response rating (0 to 100), Wild oat (wild oat; Rate 4 g/ha): 20 | Plant response rating (0 to 100), Wild oat (wild oat; Rate 16 g/ha): 20 | Plant response rating, Velvetleaf (velvetleaf [1]; 62 g/ha): 100 | Plant response rating, Velvetleaf (velvetleaf [1]; 250 g/ha): 100 | Plant response rating (0 to 100), Velvetleaf (velvetleaf [1]; Rate 1 g/ha): 70 | Plant response rating (0 to 100), Velvetleaf (velvetleaf [1]; Rate 4 g/ha): 90 | Plant response rating (0 to 100), Velvetleaf (velvetleaf [1]; Rate 16 g/ha): 100 | Plant response rating, Crabgrass (crabgrass; 62 g/ha): 40 | Plant response rating, Crabgrass (crabgrass; 250 g/ha): 50 | Plant response rating (0 to 100), Crabgrass (crabgrass; Rate 1 g/ha): 10 | Plant response rating (0 to 100), Crabgrass (crabgrass; Rate 4 g/ha): 20 | Plant response rating (0 to 100), Crabgrass (crabgrass; Rate 16 g/ha): 20 | Plant response rating (0 to 100), Rice Japonica (rice; [3]): 25 | Plant response rating (0 to 100), Rice Japonica (rice; [4]): 60 | Plant response rating Rice Japonica (rice; 62 g/ha): 65 | Plant response rating Rice Japonica (rice; 250 g/ha): 90 | Plant response rating, Velvetleaf (velvetleaf [2]; POSTEMERGENCE, Rate 10 g/ha): 9 | Plant response rating, Velvetleaf (velvetleaf [2]; POSTEMERGENCE, Rate 50 g/ha): 10 | Plant response rating, Velvetleaf (velvetleaf [2]; PREEMERGENCE, Rate 50 g/ha): 0 | Plant response rating, Sorghum (sorghum; 62 g/ha): 50 | Plant response rating, Sorghum (sorghum; 250 g/ha): 50 | Plant response rating (0 to 100), Sorghum (sorghum; Rate 1 g/ha): 30 | Plant response rating (0 to 100), Sorghum (sorghum; Rate 4 g/ha): 50 | Plant response rating (0 to 100), Sorghum (sorghum; Rate 16 g/ha): 50 | Plant response rating, Sugar beet (sugar beet; POSTEMERGENCE, Rate 10 g/ha): 10 | Plant response rating, Sugar beet (sugar beet; POSTEMERGENCE, Rate 50 g/ha): 10 | Plant response rating, Sugar beet (sugar beet; PREEMERGENCE, Rate 50 g/ha): 10 | Plant response rating Pigweed (pigweed; 62 g/ha): 100 | Plant response rating Pigweed (pigweed; 250 g/ha): 100 | Plant response rating (0 to 100), Pigweed (pigweed; Rate 1 g/ha): 85 | Plant response rating (0 to 100), Pigweed (pigweed; Rate 4 g/ha): 100 | Plant response rating (0 to 100), Pigweed (pigweed; Rate 16 g/ha): 100 | Plant response rating, Cotton (cotton; 62 g/ha): 100 | Plant response rating, Cotton (cotton; 250 g/ha): 100 | Plant response rating (0 to 100), Cotton (cotton; Rate 1 g/ha): 70 | Plant response rating (0 to 100), Cotton (cotton; Rate 4 g/ha): 100 | Plant response rating (0 to 100), Cotton (cotton; Rate 16 g/ha): 100 | Plant response rating, Barnyardgrass (barnyardgrass; POSTEMERGENCE, Rate 10 g/ha): 3 | Plant response rating, Barnyardgrass (barnyardgrass; POSTEMERGENCE, Rate 50 g/ha): 4 | Plant response rating, Barnyardgrass (barnyardgrass; PREEMERGENCE, Rate 10 g/ha): 0 | Plant response rating, Barnyardgrass (barnyardgrass; PREEMERGENCE, Rate 50 g/ha): 0 | Plant response rating, Giant foxtail (giant foxtail; POSTEMERGENCE, Rate 10 g/ha): 4 | Plant response rating, Giant foxtail (giant foxtail; POSTEMERGENCE, Rate 50 g/ha): 4 | Plant response rating, Giant foxtail (giant foxtail; PREEMERGENCE, Rate 10 g/ha): 0 | Plant response rating, Giant foxtail (giant foxtail; PREEMERGENCE, Rate 50 g/ha): 3
